Data reported in patent publication US20250228865A1, “COMPOUNDS FOR ENHANCING READ THROUGH OF GENES CONTAINING PREMATURE TERMINATION CODONS AND METHODS FOR MAKING AND USING THE SAME” (Sanofi US Services Inc., priority 2022, published 2025).

How the values were obtained:
[1] = tested on: recombinant human CFTR carrying the premature stop codon (PTC) mutation G542X; assay: CFTR-PTC mutant translation readthrough, Nanoluc tagged CFTR luminescence (G542X cell line); assay type: cell-based; details: in combination with G418, G542X cell line; for CFTR G542X ACTIVITY Fold 10 μM G-418: fold over 10 μM G-418; for EC50: 16HBE cells
In short: (§1)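 16HBE cells stably expressing Nanoluc-tagged human CFTR with G542X or R1162X, in medium with 3 μM VX-809, treated 48 h at 37 °C with compound (10-point, 2-fold, top 50 μM final) alone or with 10 μM G418. Live-cell Nanoluc luminescence normalised to a maximally effective G418 (125-250 μM).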

[2] = tested on: recombinant human CFTR carrying the premature stop codon (PTC) mutation R1162X; assay: CFTR-PTC mutant translation readthrough, Nanoluc tagged CFTR luminescence (R1162X cell line); assay type: cell-based; details: for CFTR R1162X ACTIVITY Fold 10 μM G-418: fold over 10 μM G-418, in combination with G418; for EC50: in combination with G418, 16HBE cells, read-out: CFTR R1162X ACTIVITY EC50
In short: as §1

Structure (SMILES)	EC50 [1]	EC50 [2]	CFTR G542X ACTIVITY Fold 10 μM G-418 [1]	CFTR R1162X ACTIVITY Fold 10 μM G-418 [2]
OCC1CN(c2ccc(OCc3c(Cl)cccc3Cl)cn2)CCO1 (stereo not shown) [[4-[5-[(2,6-dichlorophenyl)methoxy]-2-pyridyl]morpholin-2-yl]methanol]	1 to 10 µM	1 to 10 µM	A′ (A′ = ≥10X)	A′ (A′ = ≥10X)
OCC(O)c1ccc(OCc2c(Cl)cccc2Cl)cn1 (stereo not shown) [1-[5-[(2,6-dichlorophenyl)methoxy]-2-pyridyl]ethane-1,2-diol]	> 10 µM	1 to 10 µM	A′ (A′ = ≥10X)	B′ (B′ = ≥5X to <10X)
O=C1N[C@@H](CO)CN1c1ccc(OCc2c(Cl)cccc2Cl)cn1	1 to 10 µM	1 to 10 µM	A′ (A′ = ≥10X)	A′ (A′ = ≥10X)
Clc1cccc(Cl)c1COc1ccc(-n2cncn2)cc1 [1-[4-[(2,6-dichlorophenyl)methoxy]phenyl]-1,2,4-triazole]	1 to 10 µM	1 to 10 µM	A′ (A′ = ≥10X)	A′ (A′ = ≥10X)
CC(=O)NCC1CN(c2ccc(OCc3c(C)cccc3C(F)(F)F)cc2)C(=O)O1 (stereo not shown)	1 to 10 µM	1 to 10 µM	A′ (A′ = ≥10X)	A′ (A′ = ≥10X)
Cc1cccc(C(F)(F)F)c1COc1ccc(-n2cnc(Cn3cnc(CO)c3)c2)nc1	1 to 10 µM	1 to 10 µM	A′ (A′ = ≥10X)	A′ (A′ = ≥10X)
OCC1CN(c2ccc(OCc3c(Cl)cccc3Cl)cc2)CCO1 (stereo not shown) [[4-[4-[(2,6-dichlorophenyl)methoxy]phenyl]morpholin-2-yl]methanol]	1 to 10 µM	1 to 10 µM	A′ (A′ = ≥10X)	A′ (A′ = ≥10X)
CCCCN1CC(=O)N(c2ccc(OCc3c(C)cccc3C(F)(F)F)cc2)C1=O	1 to 10 µM	1 to 10 µM	B′ (B′ = ≥5X to <10X)	B′ (B′ = ≥5X to <10X)
CC(O)C1CN(c2ccc(OCc3c(Cl)cccc3Cl)cc2)C(=O)O1 (stereo not shown) [3-[4-[(2,6-dichlorophenyl)methoxy]phenyl]-5-(1-hydroxyethyl)oxazolidin-2-one]	1 to 10 µM	> 10 µM	A′ (A′ = ≥10X)	B′ (B′ = ≥5X to <10X)
Cc1cccc(C(C)(F)F)c1COc1ccc(N2CC(CO)NC2=O)nc1 (stereo not shown)	1 to 10 µM	1 to 10 µM	A′ (A′ = ≥10X)	A′ (A′ = ≥10X)
O=C1OC(CO)CN1c1ccc(OCc2c(Cl)ccc(F)c2Cl)cc1 (stereo not shown)	1 to 10 µM	1 to 10 µM	A′ (A′ = ≥10X)	B′ (B′ = ≥5X to <10X)
OCc1n[nH]c(-c2ccc(OCc3c(Cl)cccc3Cl)cn2)n1 [[5-[5-[(2,6-dichlorophenyl)methoxy]-2-pyridyl]-1H-1,2,4-triazol-3-yl]methanol]	1 to 10 µM	1 to 10 µM	B′ (B′ = ≥5X to <10X)	B′ (B′ = ≥5X to <10X)
Cc1cccc(C(F)(F)F)c1COc1ccc(N2CC(CO)OC2=O)cc1 (stereo not shown)	1 to 10 µM	1 to 10 µM	A′ (A′ = ≥10X)	A′ (A′ = ≥10X)
O=C1NC2(CC2)C(=O)N1c1ccc(OCc2c(Cl)cccc2C(F)(F)F)cc1	< 1 µM	1 to 10 µM	A′ (A′ = ≥10X)	A′ (A′ = ≥10X)
NCc1nnc(-c2ccc(OCc3c(Cl)cccc3Cl)cc2)o1 [Example 226, [5-[4-[(2,6-dichlorophenyl)methoxy]phenyl]-1,3,4-oxadiazol-2-yl]methanamine]	1 to 10 µM	1 to 10 µM	B′ (B′ = ≥5X to <10X)	B′ (B′ = ≥5X to <10X)
OCc1cnn(-c2ccc(OCc3c(Cl)cccc3Cl)cc2)c1 [[1-[4-[(2,6-dichlorophenyl)methoxy]phenyl]pyrazol-4-yl]methanol]	1 to 10 µM	1 to 10 µM	A′ (A′ = ≥10X)	A′ (A′ = ≥10X)
Cc1cccc(C(F)(F)F)c1COc1cnc(N2C(=O)NC(C)(C)C2=O)nc1	1 to 10 µM	1 to 10 µM	A′ (A′ = ≥10X)	A′ (A′ = ≥10X)
O=C1OC(CO)CN1c1ccc(OCc2c(Cl)cccc2C2CC2)cc1 (stereo not shown)	1 to 10 µM	1 to 10 µM	A′ (A′ = ≥10X)	A′ (A′ = ≥10X)
C[C@H]1CO[C@H](CO)CN1c1ncc(OCc2c(Cl)cccc2Cl)cn1 (racemic)	1 to 10 µM	1 to 10 µM	A′ (A′ = ≥10X)	A′ (A′ = ≥10X)
Cc1cccc(C(F)(F)F)c1COc1ccc(N2C[C@@H](CO)NC2=O)nc1	< 1 µM	< 1 µM	A′ (A′ = ≥10X)	A′ (A′ = ≥10X)
NC(=O)c1ccn(-c2ncc(OCc3c(Cl)cccc3Cl)cn2)n1 [1-[5-[(2,6-dichlorophenyl)methoxy]pyrimidin-2-yl]pyrazole-3-carboxamide]	< 1 µM	< 1 µM	A′ (A′ = ≥10X)	B′ (B′ = ≥5X to <10X)

Second part, led by results:

EC50 [1]	EC50 [2]	Structure (SMILES)	CFTR G542X ACTIVITY Fold 10 μM G-418 [1]	CFTR R1162X ACTIVITY Fold 10 μM G-418 [2]
1 to 10 µM	1 to 10 µM	Cc1cccc(C(F)(F)F)c1COc1cnc(N2CC(=O)NC2=O)nc1	A′ (A′ = ≥10X)	A′ (A′ = ≥10X)
< 1 µM	< 1 µM	CN1C(=O)CN(c2ccc(OCc3c(Cl)cccc3C(F)(F)F)cn2)C1=O	A′ (A′ = ≥10X)	A′ (A′ = ≥10X)
< 1 µM	< 1 µM	Cc1cccc(C(F)(F)F)c1COc1cnc(N2CCN3CCOCC3C2)nc1 (stereo not shown)	A′ (A′ = ≥10X)	A′ (A′ = ≥10X)
< 1 µM	< 1 µM	Cc1cccc(C(F)(F)F)c1COc1cnc(N2CCOC(CN)C2)nc1 (stereo not shown)	A′ (A′ = ≥10X)	A′ (A′ = ≥10X)
1 to 10 µM	1 to 10 µM	NC(=O)[C@H]1CCN(c2ncc(OCc3c(Cl)cccc3C(F)(F)F)cn2)C1	A′ (A′ = ≥10X)	A′ (A′ = ≥10X)
1 to 10 µM	1 to 10 µM	CNCC1CN(c2ncc(OCc3c(Cl)cccc3Cl)cn2)CCO1 (stereo not shown)	B′ (B′ = ≥5X to <10X)	B′ (B′ = ≥5X to <10X)
< 1 µM	< 1 µM	Cc1cccc(C(F)(F)F)c1COc1cnc(N2CCC(O)CC2)nc1 [1-[5-[[2-methyl-6-(trifluoromethyl)phenyl]methoxy]pyrimidin-2-yl]piperidin-4-ol]	A′ (A′ = ≥10X)	A′ (A′ = ≥10X)
< 1 µM	< 1 µM	OC[C@@H]1CN(c2ncc(OCc3c(Cl)cccc3Cl)cn2)CCO1 [[(2S)-4-[5-[(2,6-dichlorophenyl)methoxy]pyrimidin-2-yl]morpholin-2-yl]methanol]	A′ (A′ = ≥10X)	A′ (A′ = ≥10X)
1 to 10 µM	1 to 10 µM	Cc1cccc(C(F)(F)F)c1COc1cnc(N2CC[S+]([O-])CC2)nc1	A′ (A′ = ≥10X)	A′ (A′ = ≥10X)
1 to 10 µM	1 to 10 µM	O=C(O)C1CCN(c2ncc(OCc3c(Cl)cccc3C(F)(F)F)cn2)CC1 [1-(5-{[2-chloro-6-(trifluoromethyl)phenyl]methoxy}pyrimidin-]	C′ (C′ = <5X)	C′ (C′ = <5X)
1 to 10 µM	1 to 10 µM	CC(=O)N[C@H]1CCN(c2ncc(OCc3c(Cl)cccc3Cl)cn2)C1	A′ (A′ = ≥10X)	A′ (A′ = ≥10X)
< 1 µM	1 to 10 µM	OCCC1CCN(c2ncc(OCc3c(Cl)cccc3Cl)cn2)CC1 [2-[1-[5-[(2,6-dichlorophenyl)methoxy]pyrimidin-2-yl]-4-piperidyl]ethanol]	A′ (A′ = ≥10X)	B′ (B′ = ≥5X to <10X)
1 to 10 µM	1 to 10 µM	FC(F)(F)c1cccc(Cl)c1COc1cnc(N2CCCC3(CCNC3)C2)nc1 (stereo not shown)	B′ (B′ = ≥5X to <10X)	B′ (B′ = ≥5X to <10X)
< 1 µM	< 1 µM	CNC(=O)N1CCN(c2ncc(OCc3c(C)cccc3C(F)(F)F)cn2)CC1	A′ (A′ = ≥10X)	A′ (A′ = ≥10X)
< 1 µM	< 1 µM	Cc1cccc(C(F)(F)F)c1COc1cnc(N2CCC(CO)(CO)CC2)nc1	A′ (A′ = ≥10X)	A′ (A′ = ≥10X)
< 1 µM	1 to 10 µM	FC(F)(F)c1cccc(Cl)c1COc1cnc(-n2cncn2)nc1 [5-[[2-chloro-6-(trifluoromethyl)phenyl]methoxy]-2-(1,2,4-triazol-1-yl)pyrimidine]	A′ (A′ = ≥10X)	A′ (A′ = ≥10X)
